Test results reported in patent US20240018146A1, “COMPOSITIONS AND METHODS OF USING THE SAME FOR TREATMENT OF NEURODEGENERATIVE AND MITOCHONDRIAL DISEASE” (MITOKININ, INC., priority 2020, published 2024).
pEC50: −log10 of the molar value. Read-outs that look alike come from different tables or passages of the source.

Key:
Format in all cases: cell-based
[1] = tested on: HeLa MKYP cells; assay: Cell death measured by DAPI staining, with 1 μM FCCP/oligomycin or no toxin (no FO); conditions: for Max cell death at 25 μM compound, 1 uM FO (%) / Cell death at 25 μM (no FO) (%): 25 μM compound
In short: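 Cell death was read by DAPI staining after 6–6.5 h compound exposure in HeLa MKYP cells, either with 1 μM FCCP/oligomycin or without toxin. H2O2 served as the cell-death control.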

[2] = Mitotoxicity / Mitotox safety margin (therapeutic window)
[3] = tested on: HeLa MKYP cells; assay: Human mitophagy assay (HeLa mKeima assay, FACS)
In short: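 Mitophagy, read by FACS as the share of cells showing the lysosomal mtKeima emission shift, followed 6 h of 1 uM FCCP/oligomycin stimulation. Before that, HeLa MKYP cells spent 16 h with compound over a concentration range.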

[4] = Homo sapiens, HeLa, read-out: Mitophagy induction EC50
[5] = read-out: Mitophagy induction EC50
[6] = Homo sapiens, HeLa, HeLa mKeima assay, read-out: Mitophagy EC50 (HeLa mKeima assay)

C[C@@H]1CN([C@H]2COc3ccccc3[C@@H]2Nc2ncnc3[nH]c(C(F)(F)F)cc23)C[C@H](C)O1 (single isomer, unassigned) [EP-0040749]
Highest safe dose (cytotoxicity; no FO; safe means DAPI+ <20%) [1]: 25.0 µM
Max % death with 1 μM FO [1]: 34.3%
Mito-Safety Index (highest safe dose/EC50) [2]: 48.24
Highest safe dose (μM) (mitotox or cytotox) [2]: 7.1 µM
pEC50 [3, 4]: 6.82

C[C@@H]1CN([C@H]2COc3ccccc3[C@@H]2Nc2ncnc3[nH]c(C4CC4)cc23)C[C@H](C)O1 (single isomer, unassigned) [EP-0040750]
Highest safe dose (cytotoxicity; no FO; safe means DAPI+ <20%) [1]: 25.0 µM
Max % death with 1 μM FO [1]: 27.7%
Mito-Safety Index (highest safe dose/EC50) [2]: 43.07
Highest safe dose (μM) (mitotox or cytotox) [2]: 2.3 µM
pEC50 [3, 4]: 7.30

C[C@@H]1CN([C@H]2COc3cc(F)ccc3[C@@H]2Nc2ncnc3[nH]c(C(F)(F)F)cc23)C[C@H](C)O1 (single isomer, unassigned) [EP-0040773]
Highest safe dose (cytotoxicity; no FO; safe means DAPI+ <20%) [1]: 25.0 µM
Max % death with 1 μM FO [1]: 27.3%
Mito-Safety Index (highest safe dose/EC50) [2]: 77.04
Highest safe dose (μM) (mitotox or cytotox) [2]: 9.9 µM
pEC50 [3, 4]: 6.89

C[C@@H]1CN([C@H]2COc3cc(F)ccc3[C@@H]2Nc2ncnc3[nH]c(C4CC4)cc23)C[C@H](C)O1 (single isomer, unassigned) [EP-0040842]
Highest safe dose (cytotoxicity; no FO; safe means DAPI+ <20%) [1]: 25.0 µM
Max % death with 1 μM FO [1]: 22.5%
Mito-Safety Index (highest safe dose/EC50) [2]: 82.00
Highest safe dose (μM) (mitotox or cytotox) [2]: 2.0 µM
pEC50 [3, 4]: 7.70

FC(F)(F)c1cc2c(N[C@@H]3c4ccccc4OC[C@@H]3C3CCCOC3)ncnc2[nH]1 (single isomer, unassigned) [EP-0041005]
Highest safe dose (cytotoxicity; no FO; safe means DAPI+ <20%) [1]: 25.0 µM
Max % death with 1 μM FO [1]: 24.8%
Mito-Safety Index (highest safe dose/EC50) [2]: 17.30
Highest safe dose (μM) (mitotox or cytotox) [2]: 25.0 µM
pEC50 [3, 4]: 5.84

COC[C@@H]1CCN([C@H]2COc3ccccc3[C@@H]2Nc2ncnc3[nH]c(C(F)(F)F)cc23)C1 (single isomer, unassigned) [EP-0041071]
Highest safe dose (cytotoxicity; no FO; safe means DAPI+ <20%) [1]: 25.0 µM
Max % death with 1 μM FO [1]: 12.6%
Mito-Safety Index (highest safe dose/EC50) [2]: 47.29
Highest safe dose (μM) (mitotox or cytotox) [2]: 3.3 µM
pEC50 [3, 5]: 7.15

COC[C@H]1CCN([C@H]2COc3ccccc3[C@@H]2Nc2ncnc3[nH]c(C(F)(F)F)cc23)C1 (single isomer, unassigned) [EP-0041175]
Highest safe dose (cytotoxicity; no FO; safe means DAPI+ <20%) [1]: 25.0 µM
Max % death with 1 μM FO [1]: 8.8%
Mito-Safety Index (highest safe dose/EC50) [2]: 30.68
Highest safe dose (μM) (mitotox or cytotox) [2]: 4.5 µM
pEC50 [3, 5]: 6.82

[2H]C([2H])([2H])OC1CN([C@H]2COc3ccccc3[C@@H]2Nc2ncnc3[nH]c(C(F)(F)F)cc23)C1 (single isomer, unassigned) [EP-0041326]
Highest safe dose (cytotoxicity; no FO; safe means DAPI+ <20%) [1]: 25.0 µM
Max % death with 1 μM FO [1]: 7.5%
Mito-Safety Index (highest safe dose/EC50) [2]: 56.49
Highest safe dose (μM) (mitotox or cytotox) [2]: 19.8 µM
pEC50 [3, 5]: 6.46

COC[C@@H]1CCN(C2COc3ccccc3C2Nc2ncnc3[nH]c(C4CC4)cc23)C1 (single isomer, unassigned) [EP-0041514]
Highest safe dose (cytotoxicity; no FO; safe means DAPI+ <20%) [1]: 25.0 µM
Max % death with 1 μM FO [1]: 8.1%
Mito-Safety Index (highest safe dose/EC50) [2]: 38.63
Highest safe dose (μM) (mitotox or cytotox) [2]: 1.4 µM
pEC50 [3, 5]: 7.52

FC(F)OC1CN([C@H]2COc3ccccc3[C@@H]2Nc2ncnc3[nH]c(C(F)(F)F)cc23)C1 (single isomer, unassigned) [EP-0041541]
Highest safe dose (cytotoxicity; no FO; safe means DAPI+ <20%) [1]: 25.0 µM
Max % death with 1 μM FO [1]: 19.1%
Mito-Safety Index (highest safe dose/EC50) [2]: 28.61
Highest safe dose (μM) (mitotox or cytotox) [2]: 8.3 µM
pEC50 [3, 4]: 6.54

c1ccc2c(c1)CC[C@H](N1C[C@H]3COC[C@H]3C1)[C@H]2Nc1ncnc2[nH]c(C3CC3)cc12 [EP-0039713]
Max cell death at 25 μM compound, 1 uM FO (%) [1]: 19.2%
Cell death at 25 μM (no FO) (%) [1]: 12.9%
Highest safe dose (cytotoxicity; no FO; safe means DAPI+ <20%) [1]: 25.0 µM
Max % death with 1 μM FO [1]: 26.3%
Mitotox safety margin (Therapeutic window) [2]: + (+ = <10)
Mito-Safety Index (highest safe dose/EC50) [2]: 9.46
Highest safe dose (μM) (mitotox or cytotox) [2]: 0.9 µM
pEC50 [3, 6]: 7.00
pEC50 [3, 4]: 7.00

CN(c1ncnc2[nH]c(C(F)(F)F)cc12)C1c2ccccc2CCC1N1C[C@H]2COC[C@H]2C1 (some centres unmarked) [EP-0039742]
Max cell death at 25 μM compound, 1 uM FO (%) [1]: 13.8%
Cell death at 25 μM (no FO) (%) [1]: 2.45%
Highest safe dose (cytotoxicity; no FO; safe means DAPI+ <20%) [1]: 25.0 µM
Max % death with 1 μM FO [1]: 20.4%
Mito-Safety Index (highest safe dose/EC50) [2]: 7.45
Highest safe dose (μM) (mitotox or cytotox) [2]: 25.0 µM
pEC50 [3, 6]: 5.48
pEC50 [3, 4]: 5.47

CN(c1ncnc2[nH]c(C3CC3)cc12)C1c2ccccc2CCC1N1C[C@H]2COC[C@H]2C1 (some centres unmarked) [EP-0039743]
Max cell death at 25 μM compound, 1 uM FO (%) [1]: 33.7%
Cell death at 25 μM (no FO) (%) [1]: 11.6%
Highest safe dose (cytotoxicity; no FO; safe means DAPI+ <20%) [1]: 25.0 µM
Max % death with 1 μM FO [1]: 28.2%
Mito-Safety Index (highest safe dose/EC50) [2]: 5.99
Highest safe dose (μM) (mitotox or cytotox) [2]: 25.0 µM
pEC50 [3, 6]: 5.41
pEC50 [3, 4]: 5.38

c1ccc2c(c1)OC[C@H](N1CCOCC1)[C@H]2Nc1ncnc2[nH]c(C3CC3)cc12 [EP-0040080]
Max cell death at 25 μM compound, 1 uM FO (%) [1]: 16%
Cell death at 25 μM (no FO) (%) [1]: 4.73%
Highest safe dose (cytotoxicity; no FO; safe means DAPI+ <20%) [1]: 25.0 µM
Max % death with 1 μM FO [1]: 13.9%
Mitotox safety margin (Therapeutic window) [2]: ++ (++ = 10 < x < 20)
Mito-Safety Index (highest safe dose/EC50) [2]: 51.66
Highest safe dose (μM) (mitotox or cytotox) [2]: 25.0 µM
pEC50 [3, 6]: 6.23
pEC50 [3, 4]: 6.32

N#Cc1ccc2c(c1)CC[C@H](N1C[C@H]3COC[C@H]3C1)[C@H]2Nc1ncnc2[nH]c(C(F)(F)F)cc12 [EP-0040120]
Highest safe dose (cytotoxicity; no FO; safe means DAPI+ <20%) [1]: 8.3 µM
Max % death with 1 μM FO [1]: 93.5%
Highest safe dose (μM) (mitotox or cytotox) [2]: 8.3 µM
pEC50 [3, 4]: 5.64

FC(F)(F)c1cc2c(N[C@H]3c4ccccc4OC[C@@H]3N3C[C@H]4COC[C@H]4C3)ncnc2[nH]1 [EP-0040138]
Highest safe dose (cytotoxicity; no FO; safe means DAPI+ <20%) [1]: 25.0 µM
Max % death with 1 μM FO [1]: 9.4%
Mito-Safety Index (highest safe dose/EC50) [2]: 32.50
Highest safe dose (μM) (mitotox or cytotox) [2]: 25.0 µM
pEC50 [3, 4]: 6.11

Fc1ccc2c(c1)CC[C@H](N1C[C@H]3COC[C@@H]3C1)[C@H]2Nc1ncnc2[nH]c(C3CC3)cc12 [EP-0040395]
Highest safe dose (cytotoxicity; no FO; safe means DAPI+ <20%) [1]: 25.0 µM
Max % death with 1 μM FO [1]: 8.1%
Mito-Safety Index (highest safe dose/EC50) [2]: 56.09
Highest safe dose (μM) (mitotox or cytotox) [2]: 11.7 µM
pEC50 [3, 4]: 6.68

FC(F)(F)c1cc2c(N[C@H]3c4ccccc4OC[C@@H]3C3CCOCC3)ncnc2[nH]1 [EP-0040583]
Highest safe dose (cytotoxicity; no FO; safe means DAPI+ <20%) [1]: 25.0 µM
Max % death with 1 μM FO [1]: 17.8%
Mito-Safety Index (highest safe dose/EC50) [2]: 104.01
Highest safe dose (μM) (mitotox or cytotox) [2]: 25.0 µM
pEC50 [3, 4]: 6.62

Fc1ccc2c(c1)CC[C@H](N1C[C@H]3COC[C@H]3C1)[C@H]2Nc1ncnc2[nH]c(C3CC3)cc12 [EP-0040601]
Highest safe dose (cytotoxicity; no FO; safe means DAPI+ <20%) [1]: 25.0 µM
Max % death with 1 μM FO [1]: 45.3%
Mito-Safety Index (highest safe dose/EC50) [2]: 55.12
Highest safe dose (μM) (mitotox or cytotox) [2]: 10.3 µM
pEC50 [3, 4]: 6.72

Fc1ccc2c(c1)CC[C@H](N1C[C@@H]3COC[C@H]3C1)[C@H]2Nc1ncnc2[nH]c(C3CC3)cc12 [EP-0040669]
Highest safe dose (cytotoxicity; no FO; safe means DAPI+ <20%) [1]: 25.0 µM
Max % death with 1 μM FO [1]: 29.9%
Mito-Safety Index (highest safe dose/EC50) [2]: 71.36
Highest safe dose (μM) (mitotox or cytotox) [2]: 25.0 µM
pEC50 [3, 4]: 6.46

FC(F)(F)c1cc2c(NC3c4ccccc4OCC3N3C[C@@H]4COC[C@H]4C3)ncnc2[nH]1 (some centres unmarked) [EP-0040677]
Highest safe dose (cytotoxicity; no FO; safe means DAPI+ <20%) [1]: 25.0 µM
Max % death with 1 μM FO [1]: 11.1%
Mito-Safety Index (highest safe dose/EC50) [2]: 77.08
Highest safe dose (μM) (mitotox or cytotox) [2]: 25.0 µM
pEC50 [3, 4]: 6.49

FC(F)(F)c1cc2c(NC3c4ccccc4OCC3N3C[C@H]4COC[C@@H]4C3)ncnc2[nH]1 (some centres unmarked) [EP-0040678]
Highest safe dose (cytotoxicity; no FO; safe means DAPI+ <20%) [1]: 25.0 µM
Max % death with 1 μM FO [1]: 9.2%
Mito-Safety Index (highest safe dose/EC50) [2]: 28.90
Highest safe dose (μM) (mitotox or cytotox) [2]: 25.0 µM
pEC50 [3, 4]: 6.07

COC1CN([C@H]2CCc3ccccc3[C@@H]2Nc2ncnc3[nH]c(C(F)(F)F)cc23)C1 [EP-0040688]
Highest safe dose (cytotoxicity; no FO; safe means DAPI+ <20%) [1]: 8.3 µM
Max % death with 1 μM FO [1]: 82.1%
Mito-Safety Index (highest safe dose/EC50) [2]: 26.96
Highest safe dose (μM) (mitotox or cytotox) [2]: 8.3 µM
pEC50 [3, 4]: 6.51

Fc1ccc2c(c1)CC[C@H](N1C[C@H]3COC[C@@H]3C1)[C@H]2Nc1ncnc2[nH]c(C(F)(F)F)cc12 [EP-0040695]
Highest safe dose (cytotoxicity; no FO; safe means DAPI+ <20%) [1]: 25.0 µM
Max % death with 1 μM FO [1]: 20.7%
Mito-Safety Index (highest safe dose/EC50) [2]: 89.34
Highest safe dose (μM) (mitotox or cytotox) [2]: 9.1 µM
pEC50 [3, 4]: 7.00

COC1CN([C@H]2COc3ccccc3[C@@H]2Nc2ncnc3[nH]c(C(F)(F)F)cc23)C1 [EP-0040697]
Highest safe dose (cytotoxicity; no FO; safe means DAPI+ <20%) [1]: 8.3 µM
Max % death with 1 μM FO [1]: 57.6%
Mito-Safety Index (highest safe dose/EC50) [2]: 15.51
Highest safe dose (μM) (mitotox or cytotox) [2]: 8.3 µM
pEC50 [3, 5]: 6.27

COC1CN([C@H]2COc3ccccc3[C@@H]2Nc2ncnc3[nH]c(C4CC4)cc23)C1 [EP-0040702]
Highest safe dose (cytotoxicity; no FO; safe means DAPI+ <20%) [1]: 25.0 µM
Max % death with 1 μM FO [1]: 7.7%
Mito-Safety Index (highest safe dose/EC50) [2]: 77.26
Highest safe dose (μM) (mitotox or cytotox) [2]: 25.0 µM
pEC50 [3, 5]: 6.49
